From article PMC6273621, “Synthesis and the Biological Activity of Phosphonylated 1,2,3-Triazolenaphthalimide Conjugates” (Molecules, 2016) come the findings set out here.

Series [1] in a line: Cytotoxicity, cell growth (CC50) in HEL cells. The settings on record: human, concentration reducing cell growth by 50%. Type of series: cell-based.
Series [2] has as its system TK+ VZV strain. Kind of series: microbe, parasite or virus in culture. Type of series: cell-based, varicella-zoster virus (VZV) strain Oka. The settings on record: concentration reducing virus plaque formation by 50%.
Series [3] has as its system HEL cells. Kind of series: Cytotoxicity, cell morphology (MCC) in HEL cells. Type of series: cell-based, human. Conditions: minimum cytotoxic concentration causing microscopically detectable alteration of cell morphology. The text has this: The cytotoxicity of the tested compounds toward the uninfected host cells was defined as the minimum cytotoxic concentration (MCC) that causes a microscopically detectable alteration of normal cell morphology.

The test system of series [4] is TK− VZV strain. The series can be described thus: microbe, parasite or virus in culture. Type of series: cell-based, varicella-zoster virus (VZV) strain 07−1. The settings on record: concentration reducing virus plaque formation by 50%.
Series [5] deals with murine leukemia (L1210) cells. The series can be described thus: Cytostatic activity, L1210 cell proliferation. The class given is cell-based. Conditions: Mus musculus, read-out: IC50 L1210. As for the experimental part: (§1) All assays were performed in 96-well microtiter plates. To each well were added (5–7.5) × 10^4 tumor cells and a given amount of the test compound. The cells were allowed to proliferate for 48 h (murine leukemia L1210 cells) or 72 h (human lymphocytic CEM and human cervix carcinoma HeLa cells) at 37 °C in a humidified CO2-controlled atmosphere. At the end of the incubation period, the cells were counted in a Coulter counter.

The test system of series [6] is human T-lymphocyte (CEM) cells. Kind of series: Cytostatic activity, CEM cell proliferation. The settings on record: CCRF-CEM, 72 h, read-out: IC50 CEM. The class given is cell-based. As for the experimental part:
as §1

Series [7] has as its system human cervix carcinoma cells (HeLa). The series can be described thus: Cytostatic activity, HeLa cell proliferation. Conditions: 72 h, read-out: IC50 HeLa. The class given is cell-based. As for the experimental part:
as §1

Series [8] deals with human dermal microvascular endothelial HMEC-1 cells. The series can be described thus: Cytostatic activity, HMEC-1 cell proliferation. Type of series: cell-based.
The test system of series [9] is L1210, CEM, HeLa and HMEC-1 cells. Kind of series: Cytostatic activity, overall statement on the tested cell lines. Conditions: naphthalimides devoid of the 1,2,3-triazole unit. The class given is cell-based. As for the experimental part:
as §1

Where [10] appears, read: Human alphaherpesvirus 3, HEL, read-out: Antiviral Activity EC50, TK+ VZV Strain, HEL cell cultures.
Where [11] appears, read: Human alphaherpesvirus 3, HEL, read-out: Antiviral Activity EC50, TK− VZV Strain, HEL cell cultures.
Setting [12] is: L1210, cell proliferation, 48 h.
[13] abbreviates: HMEC-1, cell proliferation, read-out: IC50 HMEC-1.

Read-outs that look alike come from different tables or passages of the source. Bounds are passed on as bounds.

Turning to `Nc1nc2c(ncn2COCCO)c(=O)[nH]1` [Acyclovir], in series [1] (HEL cells (uninfected)), the half-maximal cytotoxic concentration (CC50) is > 440 µM.
Consider `O=c1[nH]c(=O)n([C@H]2C[C@H](O)[C@@H](CO)O2)cc1/C=C/Br` [Brivudin, reference compound], for which the concentration for a half-maximal effect (EC50) in series [2] (setting [10]) turned out to be 0.013 µM; in series [2] (read-out: Antiviral Activity EC50, TK+ VZV Strain, HEL cell cultures), 0.0078 µM; in series [4] (setting [11]) it was 24.9 µM; in series [4] (read-out: Antiviral Activity EC50, TK− VZV Strain, HEL cell cultures) it was 13.7 µM. Besides, in series [3], the “Cytotoxicity, Cell Morphology (MCC)” value is reported as >300 μM. Further, in series [1], the CC50 is > 300 µM.
For the compound `C#CCN1C(=O)c2cccc3c(Br)ccc(c23)C1=O` [Compound 8], the half-inhibitory concentration (IC50) in series [5] (setting [12]) was ≥ 250 µM; in [6] (cell proliferation), ≥ 250 µM; in series [7] (cell proliferation) it was > 250 µM; in series [8] (setting [13]), > 250 µM. Also, the “Cytostatic activity (in words)” value in series [9] is “inactive”.
On to `C#CCN1C(=O)c2cccc3cc([N+](=O)[O-])cc(c23)C1=O` [Compound 11, 5-Nitro-2-(prop-2-yn-1-yl)-1H-benzo[de]isoquinoline-1,3(2H)-dione], for which the melting point lay in the range of 213 to 214 °C. Further, in [5] (setting [12]), the IC50 is 177 ± 16 µM. Moreover, the EC50 in [2] (setting [10]) came out at 48.9 µM. For the same compound, in series [3], the “Cytotoxicity, Cell Morphology (MCC)” value is 100 μM. Further, the IC50 in series [6] (cell proliferation) came out at 229 ± 18 µM. Besides, the concentration for a half-maximal effect (EC50) in series [4] (setting [11]) is > 100 µM. In series [7] (cell proliferation), the IC50 came to 109 ± 5 µM. For the same compound, the IC50 in series [8] (setting [13]) is > 250 µM. In addition, the “Cytostatic activity (in words)” value in [9] was “inactive”.
`CCOP(=O)(Cn1cc(CN2C(=O)c3cccc4cc([N+](=O)[O-])cc(c34)C2=O)nn1)OCC` [Compound 16a, Diethyl {4-[(5-Nitro-1,3-dioxo-1H-benzo[de]isoquinolin-2(3H)-yl)methyl]-1H-1,2,3-triazol-1-yl}methylphosphonate] returned a melting point of 147 to 148 °C. In addition, the IC50 in series [5] (L1210, 48 h) was 66 ± 7 µM. In series [2] (setting [10]), the EC50 was found to be 39.1 µM. Moreover, the “Cytotoxicity, Cell Morphology (MCC)” value in series [3] was >100 μM. Besides, the IC50 in series [6] came out at 69 ± 1 µM. In addition, the concentration giving a half-maximal response (EC50) in series [4] (setting [11]) was 64.5 µM. The IC50 in [7] came to 44 ± 19 µM. Further, in series [8] (HMEC-1, read-out: IC50 HMEC-1), the half-maximal inhibitory concentration (IC50) was found to be 154 ± 1 µM.
Compound `CCOP(=O)(CCCn1cc(CN2C(=O)c3cccc4cc([N+](=O)[O-])cc(c34)C2=O)nn1)OCC` [Compound 16c, Diethyl 3-{4-[(5-Nitro-1,3-dioxo-1H-benzo[de]isoquinolin-2(3H)-yl)methyl]-1H-1,2,3-triazol-1-yl}propylphosphonate] showed a melting point of 113 to 114 °C. Further, in series [5] (L1210, 48 h), the IC50 was determined as 34 ± 9 µM. The EC50 in [2] (setting [10]) was 32.8 µM. The “Cytotoxicity, Cell Morphology (MCC)” value in series [3] is recorded as >100 μM. Besides, in [6], the IC50 was determined as 55 ± 23 µM. Besides, the concentration giving a half-maximal response (EC50) in series [4] (setting [11]) was 47.8 µM. In addition, the concentration for half-maximal inhibition (IC50) in [7] was found to be 29 ± 17 µM. In addition, the 50% inhibitory concentration (IC50) in series [8] (HMEC-1, read-out: IC50 HMEC-1) is 136 ± 22 µM.
As for `CCOP(=O)(CCCCn1cc(CN2C(=O)c3cccc4cc([N+](=O)[O-])cc(c34)C2=O)nn1)OCC` [Compound 16d, Diethyl 4-{4-[(5-Nitro-1,3-dioxo-1H-benzo[de]isoquinolin-2(3H)-yl)methyl]-1H-1,2,3-triazol-1-yl}butylphosphonate], the melting point lay within 150 to 151 °C. Further, the half-maximal inhibitory concentration (IC50) in series [5] (L1210, 48 h) stood at 70 ± 52 µM. For the same compound, the concentration for a half-maximal effect (EC50) in series [2] (setting [10]) came to 29.9 µM. For the same compound, the “Cytotoxicity, Cell Morphology (MCC)” value in series [3] is recorded as >100 μM. Besides, the IC50 in series [6] is 95 ± 4 µM. The EC50 in [4] (setting [11]) was 53.9 µM. Moreover, the IC50 in series [7] was determined as 81 ± 4 µM. Moreover, the IC50 in series [8] (HMEC-1, read-out: IC50 HMEC-1) amounted to 126 ± 37 µM.
In the case of `CCOP(=O)(OCC)C(O)Cn1cc(CN2C(=O)c3cccc4cc([N+](=O)[O-])cc(c34)C2=O)nn1` (stereo not drawn) [Compound 16e, Diethyl 2-{4-[(5-Nitro-1,3-dioxo-1H-benzo[de]isoquinolin-2(3H)-yl)methyl]-1H-1,2,3-triazol-1-yl}-1-hydroxyethylphosphonate], the melting point lay in the range of 212 to 213 °C. Further, in series [5] (L1210, 48 h), the IC50 was determined as 111 ± 39 µM. Further, the EC50 in series [2] (setting [10]) was 83.6 µM. The “Cytotoxicity, Cell Morphology (MCC)” value in series [3] is >100 μM. Moreover, the IC50 in series [6] was 127 ± 14 µM. The 50% effective concentration (EC50) in series [4] (setting [11]) is > 100 µM. The half-maximal inhibitory concentration (IC50) in [7] came to 132 ± 2 µM. Further, in series [8] (HMEC-1, read-out: IC50 HMEC-1), the IC50 was > 250 µM.
The compound `CCOP(=O)(CC(O)Cn1cc(CN2C(=O)c3cccc4cc([N+](=O)[O-])cc(c34)C2=O)nn1)OCC` (stereo not drawn) [Compound 16f, Diethyl 3-{4-[(5-Nitro-1,3-dioxo-1H-benzo[de]isoquinolin-2(3H)-yl)methyl]-1H-1,2,3-triazol-1-yl}-2-hydroxypropylphosphonate] showed a melting point of 176 to 177 °C. For the same compound, in [5] (L1210, 48 h), the IC50 was 68 ± 11 µM. In addition, the EC50 in series [2] (setting [10]) came out at 56.7 µM. Besides, in series [3], the “Cytotoxicity, Cell Morphology (MCC)” value is >100 μM. In series [6], the IC50 was 71 ± 21 µM. For the same compound, the EC50 in series [4] (setting [11]) turned out to be 91.5 µM. In [7], the half-maximal inhibitory concentration (IC50) was determined as 42 ± 21 µM. Also, the IC50 in [8] (HMEC-1, read-out: IC50 HMEC-1) was determined as 155 ± 6 µM.
On to `CCOP(=O)(COCCn1cc(CN2C(=O)c3cccc4cc([N+](=O)[O-])cc(c34)C2=O)nn1)OCC` [Compound 16g, Diethyl 2-{4-[(5-Nitro-1,3-dioxo-1H-benzo[de]isoquinolin-2(3H)-yl)methyl]-1H-1,2,3-triazol-1-yl}ethoxy-methylphosphonate], for which the melting point fell in the range of 89 to 90 °C. In [5] (L1210, 48 h), the IC50 was determined as 71 ± 1 µM. In addition, the EC50 in [2] (setting [10]) was determined as 50.2 µM. Besides, in series [3], the “Cytotoxicity, Cell Morphology (MCC)” value is listed as >100 μM. Also, the IC50 in [6] was 79 ± 4 µM. Besides, in [4] (setting [11]), the half-maximal effective concentration (EC50) was > 100 µM. Also, in [7], the IC50 was determined as 76 ± 8 µM. In addition, the IC50 in series [8] (HMEC-1, read-out: IC50 HMEC-1) was 148 ± 3 µM.

Usually CC50 stands for the concentration at which the toxic effect on the cells reaches its halfway point. A higher CC50 goes with better tolerance by the cells. One may read the EC50 as the concentration needed to bring the measured effect to its halfway point. In general, IC50 refers to the concentration that inhibits the measured activity by half. For orientation: melting point means the temperature of the solid-liquid transition.
